# Measurements as given in ChEMBL document CHEMBL1641367, “Antioxidant, anti-inflammatory and anti-hyperglycaemic activities of heterocyclic homoprostanoid derivatives” (2011).
# Activity calls are given as the source filed them. The rule behind the calls is not given here.
# Columns and labels:
# Rattus norvegicus [1] = assay: Antiinflammatory activity in rat assessed as inhibition of carrageenan-induced hind paw edema at 100 mg/kg, po measured after 3 hrs of carrageenan challenge; format: functional
# Serum [2] = assay: Antiinflammatory activity in bovine serum assessed as denaturation of albumin at 1 mM after 10 mins by spectrophotometry; format: functional; settings: Bos taurus
# [3] = target: Dipeptidyl peptidase 4 (Homo sapiens) (UniProt P27487); assay: Inhibition of DPP4 at 500 ug/ml after 30 mins by spectrophotometry
# Chain of Dipeptidyl peptidase 4 (Homo sapiens) (P27487 whole entry, looked up): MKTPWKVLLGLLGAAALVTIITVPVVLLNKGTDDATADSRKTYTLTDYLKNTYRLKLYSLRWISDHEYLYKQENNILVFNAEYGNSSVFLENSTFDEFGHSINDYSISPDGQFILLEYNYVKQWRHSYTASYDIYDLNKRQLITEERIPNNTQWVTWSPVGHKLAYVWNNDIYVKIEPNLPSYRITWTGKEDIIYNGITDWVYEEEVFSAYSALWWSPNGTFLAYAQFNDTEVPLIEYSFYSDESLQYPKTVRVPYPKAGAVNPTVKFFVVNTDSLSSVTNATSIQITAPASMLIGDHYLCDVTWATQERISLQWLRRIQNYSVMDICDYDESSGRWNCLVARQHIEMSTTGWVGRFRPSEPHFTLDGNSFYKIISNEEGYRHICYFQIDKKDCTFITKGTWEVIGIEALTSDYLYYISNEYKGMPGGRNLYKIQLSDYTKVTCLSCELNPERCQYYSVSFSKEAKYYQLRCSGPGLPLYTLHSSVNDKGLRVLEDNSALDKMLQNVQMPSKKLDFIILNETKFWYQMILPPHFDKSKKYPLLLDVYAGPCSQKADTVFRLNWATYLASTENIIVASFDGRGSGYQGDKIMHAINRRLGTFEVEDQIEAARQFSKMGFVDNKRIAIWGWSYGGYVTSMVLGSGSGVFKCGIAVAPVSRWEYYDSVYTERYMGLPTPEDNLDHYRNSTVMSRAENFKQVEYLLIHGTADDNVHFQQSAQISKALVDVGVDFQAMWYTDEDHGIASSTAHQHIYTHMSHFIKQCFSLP
# Serum [4] = assay: Antiinflammatory activity in bovine serum assessed as denaturation of albumin at 0.01 mM after 10 mins by spectrophotometry; format: functional; settings: Bos taurus
# Mus musculus [5] = assay: Antihyperglycemic activity in mouse assessed as decrease in blood glucose AUC level at 100 mg/kg, po administered before glucose challenge measured after 120 mins post glucose infusion; format: functional, organism-based; set-up: dose 100 mg/kg
# Rattus norvegicus [6] = assay: Antiinflammatory activity in rat assessed as inhibition of complete Freund's adjuvant-induced paw swelling at 100 mg/kg, po administered on day 21 post induction of inflammation measured on day 35; format: functional
# Mus musculus [7] = assay: Antihyperglycemic activity in mouse assessed as decrease in blood glucose AUC level at 100 mg/kg, ip administered before glucose challenge measured after 120 mins post glucose infusion; format: functional; settings: 2 h, route intraperitoneal
# Serum [8] = assay: Antiinflammatory activity in bovine serum assessed as denaturation of albumin at 5 mM after 10 mins by spectrophotometry; format: functional; settings: Bos taurus
# Serum [9] = assay: Antiinflammatory activity in bovine serum assessed as denaturation of albumin at 0.25 mM after 10 mins by spectrophotometry; format: functional; settings: Bos taurus
# Rattus norvegicus [10] = assay: Antiinflammatory activity in rat assessed as inhibition of complete Freund's adjuvant-induced paw swelling at 5 mg/kg, po administered on day 21 post induction of inflammation measured on day 35; format: functional
Compound,inhibition in vivo at 100 mg/kg (Rattus norvegicus [1]),inhibition at 1000 µM (Serum [2]),inhibition [3],other results
CCCCCCCCC1=NC(=O)N=C1CCCCCCCC(=O)O,-12.9%,76.7%,–,–
CCCCCCCCC1=NC(=O)N=C1CCCCCCCC(=O)NN,–,31.4%,–,–
CCCCCCCCc1nc2ccc(C)cc2nc1CCCCCCCC(=O)O,12.5%,37.4%,88.1%,–
CCCCCCCCC1=NC(=S)N=C1CCCCCCCC(=O)NN,–,–,–,inhibition at 10 µM (Serum [4]): 37.2%
CCCCCCCCc1nc2ccc([N+](=O)[O-])cc2nc1CCCCCCCC(=O)O,39.6%,36.9%,64%,inhibition (Mus musculus [5]): inactive; inhibition in vivo at 100 mg/kg (Rattus norvegicus [6]): 53.3%; inhibition in vivo at 100 mg/kg (Mus musculus [7]): 45.1%
CCCCCCCCC1=NC(=S)N=C1CCCCCCCC(=O)OCCO[N+](=O)[O-],-22.4%,–,23.3%,inhibition at 10 µM (Serum [4]): 38.1%
CCCCCCC(CC1OC(C)(C)OC1CCCCCCCC(=O)OC)OC(C)=O (stereo unspecified),–,–,–,inhibition at 5000 µM (Serum [8]): 48.5%
CCCCCCCCc1nc2ccccc2nc1CCCCCCCC(=O)O,34.4%,75.7%,73.6%,–
CCCCCCCCC1=NC(=S)N=C1CCCCCCCC(=O)O,-7.17%,78.3%,–,–
CCCCCCCCC1=NC(=O)CC(=O)N=C1CCCCCCCC(=O)O,1.74%,–,12.3%,inhibition at 250 µM (Serum [9]): 37%
O=C(O)Cc1ccccc1Nc1c(Cl)cccc1Cl [DICLOFENAC],38.2%,–,–,inhibition at 5000 µM (Serum [8]): 56.3%; inhibition in vivo at 5 mg/kg (Rattus norvegicus [10]): 35.3%
CCCCCCCCC1=NC(=O)N=C1CCCCCCCC(=O)NN1C(=O)CSC1c1ccc(Cl)cc1 (stereo unspecified),0%,–,–,–
CCCCCCCCc1nc2ccc(Cl)cc2nc1CCCCCCCC(=O)O,26.7%,57.1%,45.5%,inhibition (Mus musculus [5]): inactive; inhibition in vivo at 100 mg/kg (Rattus norvegicus [6]): 44.2%; inhibition in vivo at 100 mg/kg (Mus musculus [7]): 36.7%
CCCCCCCCc1nc(=S)[nH]nc1CCCCCCCC(=O)O,-3.82%,–,58.3%,inhibition at 250 µM (Serum [9]): 14%
CCCCCCCCc1nonc1CCCCCCCC(=O)O,–,–,2.2%,inhibition at 5000 µM (Serum [8]): 25.4%
CCCCCCCCC1=NC(=S)N=C1CCCCCCCC(=O)NN1C(=O)CSC1c1ccc(Cl)cc1 (stereo unspecified),-21.7%,–,–,–
CCCCCCCCC1=NC(=O)N=C1CCCCCCCC(=O)OCCO[N+](=O)[O-],-22.8%,25.1%,-6.22%,–
CCCCCCCCc1nc2ccccc2nc1CCCCCCCC(=O)NN,–,3.72%,–,–
CCCCCCCCC1OC(C)(C)OC1CCCCCCCC(=O)OCC (stereo unspecified),–,–,–,inhibition at 5000 µM (Serum [8]): 46.4%
